ChEMBL document CHEMBL3997775, “Challenges and Opportunities in the Development of Serine Synthetic Pathway Inhibitors for Cancer Therapy” (J Med Chem, 2017)
Converted amounts (≈) assume the structure as drawn.

System: not listed separately
Assay: Lipophilicity, logD of the compound
Type: physicochemical
Settings: octanol/water

| logD | Structure (SMILES) |
| --- | --- |
| < -1 | O=C(COc1cc2[nH]c(C(=O)N[C@H](CO)c3ccc(C(=O)O)cc3)cc2cc1Cl)NCCO |

System: not listed separately
Assay: Solubility of the compound
Type: physicochemical
Settings: not given

| solubility [µM] | Structure (SMILES) |
| --- | --- |
| 973 (≈ 463 µg/mL) | O=C(COc1cc2[nH]c(C(=O)N[C@H](CO)c3ccc(C(=O)O)cc3)cc2cc1Cl)NCCO |

Molecular target: T1, D-3-phosphoglycerate dehydrogenase (Homo sapiens, UniProt O43175)
T1 sequence (O43175 whole entry): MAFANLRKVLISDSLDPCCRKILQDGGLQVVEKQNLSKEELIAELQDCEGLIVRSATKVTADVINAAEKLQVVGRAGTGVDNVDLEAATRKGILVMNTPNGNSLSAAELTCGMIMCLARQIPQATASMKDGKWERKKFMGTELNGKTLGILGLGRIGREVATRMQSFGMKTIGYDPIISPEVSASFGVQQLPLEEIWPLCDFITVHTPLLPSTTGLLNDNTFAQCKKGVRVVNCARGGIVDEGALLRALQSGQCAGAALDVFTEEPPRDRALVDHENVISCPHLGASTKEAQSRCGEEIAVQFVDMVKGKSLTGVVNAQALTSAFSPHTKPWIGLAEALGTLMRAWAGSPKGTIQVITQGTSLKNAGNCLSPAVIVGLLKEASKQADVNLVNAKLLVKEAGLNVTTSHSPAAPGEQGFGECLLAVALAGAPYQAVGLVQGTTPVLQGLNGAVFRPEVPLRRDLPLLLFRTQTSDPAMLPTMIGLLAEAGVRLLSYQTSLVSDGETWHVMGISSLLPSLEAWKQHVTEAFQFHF
Assay: Inhibition of full length PHGDH (unknown origin) using 3-phosphoglycerate as substrate incubated for 60 mins in presence of PSAT1, PSPH by resazurin based diaphorase coupled assay
Settings: not given

| IC50 [µM] | Structure (SMILES) |
| --- | --- |
| > 100 | O=C(Nc1ccc(S(=O)(=O)Nc2ccccn2)cc1)c1cc(-c2ccccc2O)n[nH]1 |
| > 100 | O=C(Nc1ccc(S(=O)(=O)Nc2ncccn2)cc1)c1cc(-c2ccccc2)no1 |
| < 50 | O=C(Nc1ccc(S(=O)(=O)Nc2ncccn2)cc1)c1cc(-c2ccccc2F)n[nH]1 |
| > 100 | O=C(Nc1ccc(S(=O)(=O)Nc2ncccn2)cc1)c1cc(-c2ccccc2)on1 |
| > 100 | O=C(c1cc(-c2ccccc2)n[nH]1)N1CCC2C=C(S(=O)(=O)Nc3ncccn3)C=CC21 (stereo not drawn) |
| > 100 | O=C(Nc1ccc(S(=O)(=O)NCCCN2CCOCC2)cc1)c1cc(-c2ccccc2O)n[nH]1 |
| < 50 | Cn1nc(-c2ccccc2)cc1C(=O)Nc1ccc(S(=O)(=O)Nc2ncccn2)cc1 |
| > 100 | CN(c1ncccn1)S(=O)(=O)c1ccc(NC(=O)c2cc(-c3ccccc3)n[nH]2)cc1 |
| > 100 | Nc1ncccc1-c1cc(C(=O)Nc2ccc(S(=O)(=O)Nc3ncccn3)cc2)[nH]n1 |
| < 50 | COc1ccccc1-c1cc(C(=O)Nc2ccc(S(=O)(=O)Nc3ncccn3)cc2)[nH]n1 |
| > 100 | CN(c1ncccn1)S(=O)(=O)c1ccc(NC(=O)c2cc(-c3ccccc3O)n[nH]2)cc1 |
| > 100 | Cc1c(-c2ccccc2)n[nH]c1C(=O)Nc1ccc(S(=O)(=O)Nc2ncccn2)cc1 |
| > 100 | O=C(Nc1ccc(S(=O)(=O)Nc2ncccn2)cc1)c1cc(-c2ccccc2)nn1-c1ccccc1 |
| 50 to 100 | O=C(Nc1ccc(S(=O)(=O)Nc2ccccn2)cc1)c1cc(-c2ccccc2)n[nH]1 |
| > 100 | O=C(Nc1ccc(S(=O)(=O)N2CCCCC2)cc1)c1cc(-c2ccccc2O)n[nH]1 |
| < 50 | O=C(Nc1ccc(S(=O)(=O)Nc2ncccn2)cc1)c1cc(-c2ccccc2O)n[nH]1 |
| > 100 | NS(=O)(=O)c1ccc(NC(=O)c2cc(-c3ccccc3O)[nH]n2)cc1 |
| < 50 | Cc1ccnc(NS(=O)(=O)c2ccc(NC(=O)c3cc(-c4ccccc4O)n[nH]3)cc2)n1 |
| > 100 | O=C(Nc1ccc(S(=O)(=O)Nc2ncccn2)cc1)c1cc(-c2ccccc2C(=O)O)n[nH]1 |
| < 50 | O=C(Nc1ccc(S(=O)(=O)Nc2ncccn2)cc1)c1cc(-c2ccccc2)n[nH]1 |
| > 100 | O=C(Nc1ccc(S(=O)(=O)NCc2ccco2)cc1)c1cc(-c2ccccc2O)n[nH]1 |
| < 50 | Cc1cc(C)nc(NS(=O)(=O)c2ccc(NC(=O)c3cc(-c4ccccc4)n[nH]3)cc2)n1 |

Molecular target: T2, D-3-phosphoglycerate dehydrogenase (Homo sapiens) (UniProt O43175)
T2 sequence (whole entry): T1 sequence (O43175 whole entry)
Assay: Binding affinity to human N- terminal His6-tagged PHGDH (1 to 533 residues) expressed in Escherichia coli Rosetta (DE3) assessed as change in melting temperature by SYPRO orange dye based DSF assay
Settings: not given

| ΔTm [°C] | Structure (SMILES) |
| --- | --- |
| 1.7 | O=C1COc2cc(O)ccc21 |
| 1.4 | Nc1cccc(-c2cnco2)c1 |
| 2.4 | Cc1cccc2cc[nH]c12 |
| 2.3 | NC(=O)c1ccc(F)c(Cl)c1 |
| 2.5 | Oc1noc2ccccc12 |
| 2.2 | Cn1nc(-c2ccccc2)cc1N |
| 1.3 | COc1ccc(NC(C)=O)cc1Cl |

Molecular target: T1, D-3-phosphoglycerate dehydrogenase
Settings: not given

| IC50 [µM] | Structure (SMILES) |
| --- | --- |
| > 57 | Cc1cccc(NC(=S)N2CCN(c3cccc(C(F)(F)F)c3)CC2)c1 |
| 6.5 | Cc1cc(C)nc(NC(=S)N2CCN(c3cccc(C(F)(F)F)c3)CC2)c1 |
